# Measured values reported in patent US20130096212A1, “Method and a Kit to Predict Response to Antidepressant Treatment” (UNIVERSITY OF TARTU, priority 2011, published 2013).
# Assays:
# MDD patients = assay: Replication sample: MDD patients treated with escitalopram for 12 weeks, MADRS change by rs41271330 genotype; assay type: in vivo, human; details: 394 patients, SE=3%
# Source text: Replication sample consisted of 394 patients treated with escitalopram for 12 weeks. All the patients were of European origin. […] For validation of significant markers from previous step 5 SNPs were genotyped with pre-designed Taqman assays and one SNP was genotyped with Sanger sequencing. These […] markers were genotyped in the remaining 116 individuals, and tested for association with the clinical outcome. Three different outcome definitions were used: MADRS score at the final visit (week 12), relative change (percentage) in MADRS score since baseline, and absolute change in MADRS score since baseline. For each outcome, a univariate additive regression model was fitted to assess the association, as well as a multivariate model, adjusted for age, gender, age at first depression episode, baseline MADRS and BDI scores. Additionally a mixed-effects longitudinal model was fit for MADRS scores at week 0 to week 12, using a random subject-specific intercept. Also here, both unadjusted and adjusted models were fit. Age at recruitment, gender, age at first depression episode and baseline BDI score appeared to be independently predictive (p<0.05) for at least one of the outcomes after adjusting for other covariates in a multivariate regression model and were therefore used as adjustment variables for genotype-outcome association. […]
# [1] = system: outpatients with Major Depressive Disorder; assay: 12-week open-label escitalopram treatment of MDD outpatients, Estonian sample (MADRS, HAM-D, CGI), also by rs41271330 genotype; assay type: in vivo, human; details: for patients with moderate or severe depression (MADRS score 16 or more): end of 12 weeks
# Source text: The study sample consisted of 135 outpatients with Major Depressive Disorder, MDD (mean age 31.1±11.6 years, 68% females) recruited at the Psychiatry Clinic of Tartu University Hospital in Estonia. The diagnosis according to DSM-IV criteria was verified using Mini International Neuropsychiatric Interview (M.I.N.I. 5.0.0) and substantiated by psychiatric history and medical records. At least moderate severity of depression was required for inclusion as indicated by a Montgomery-Asberg Depression Rating Scale (MADRS) total score of 22 or higher. MDD patients with a secondary current comorbid anxiety disorder were included in this study, except for obsessive-compulsive disorder, posttraumatic stress disorder, or panic disorder, and these comprised 51% of the sample. Patients were excluded if they met diagnostic criteria for any of the following: bipolar disorder, psychotic disorder or features, current eating disorders, mental retardation, any pervasive developmental disorder or cognitive disorder, or alcohol or drug abuse-related disorders within 12 months prior to baseline. Additional exclusion criteria were acute infections, neurological or any other unstable general disorders, serious suicide risk, formal behaviour therapy, or systematic psychotherapy, pregnancy or breastfeeding. None of patients was known to have a history of hypersensitivity or non-response to escitalopram or other SSRIs. The Human Studies Ethics Committee of the University of Tartu and State Agency of Medicines had approved the study protocol, which was in accordance with Declaration of Helsinki. All participants provided their written informed consent.
# The patients were treated with escitalopram 10-20 mg/day for 12 weeks using an open-label, placebo non-controlled study design. No other medications, including anti-inflammatory drugs, were allowed during the study, except for hormonal contraceptives and zolpidem or zopiclone for insomnia. Clinical severity and treatment response were assessed bi-weekly using the MADRS and Clinical Global Impression scale (CGI). Hamilton Depression Scale (HAM-D) was also used as a secondary scale for clinical assessments. Additionally, the patients were asked to evaluate the depressive symptoms on the Beck Depression Inventory (BDI) and possible side effects on the Toronto Side-effect Scale (TSES) at each visit. All patients started treatment with escitalopram at a dose of 10 mg/day for the first 4 weeks. The patients showing at least 50% decline in the MADRS total score at week 4 continued taking 10 mg of escitalopram until the end of study. […] At the end of week 12 the patients were defined as responders if the decrease in both MADRS and HAM-D total scores was at least 50% and score on the CGI improvement scale was 2 or less. The remitters were defined if the scores were less than 12 on the MADRS and less than 8 on the HAM-D accordingly to earlier clinical trials. […] The severity of depressive symptoms and treatment response were rated blindly to genotypes by one psychiatrist. Each visit the patients were also asked to report about their regularity of taking the medication.
# These 38 markers were genotyped in the remaining 116 individuals, and tested for association with the clinical outcome. Three different outcome definitions were used: MADRS score at the final visit (week 12), relative change (percentage) in MADRS score since baseline, and absolute change in MADRS score since baseline. For each outcome, a univariate additive regression model was fitted to assess the association, as well as a multivariate model, adjusted for age, gender, age at first depression episode, baseline MADRS and BDI scores. Additionally a mixed-effects longitudinal model was fit for MADRS scores at week 0 to week 12, using a random subject-specific intercept. Also here, both unadjusted and adjusted models were fit. […]
structure (smiles),measurement,setting,value
CN(C)CCC[C@@]1(c2ccc(F)cc2)OCc2cc(C#N)ccc21 [escitalopram],decrease of relative MADRS score reduction from baseline per copy of the rs41271330 minor allele,MDD patients,7%
same,patients who discontinued treatment due to lack of efficacy or side effects,[1]; 12-week study,6.7%
same,decrease of relative MADRS score reduction from baseline per copy of the rs41271330 minor allele,"[1]; Estonian sample, 116 patients, SE=6%",18%
same,patients who needed an increased dose after the initial 4 weeks,[1]; carriers of rs41271330 minor allele,88.9%
same,patients with moderate or severe depression (MADRS score 16 or more),"[1]; carriers of rs41271330 minor allele (A), 14/27",52%
same,patients with moderate or severe depression (MADRS score 16 or more),"[1]; homozygous for rs41271330 major allele (G), 19/89",22%
same,patients with insufficient or partial response to treatment,[1]; end of week 12,32.6%
same,patients defined as responders,"[1]; end of week 12, 10-20 mg/day, 135 MDD outpatients, at least 50% decrease in MADRS and HAM-D and CGI improvement 2 or less",60.7%
same,patients who achieved remission,"[1]; end of week 12, MADRS less than 12 and HAM-D less than 8, of total sample",58.5%
same,patients who needed an increased dose after the initial 4 weeks,[1]; homozygous for rs41271330 major allele,62.9%
same,responders among the patients whose daily dose was increased and kept at 20 mg,"[1]; of 85 patients on 20 mg, end of study",41 patients
same,number of patients with MADRS score at week 12 of 0...7,[1]; rs41271330 A/G + A/A,9
same,number of patients with MADRS score at week 12 of 8...15,[1]; rs41271330 A/G + A/A,4
same,number of patients with MADRS score at week 12 of 16...25,[1]; rs41271330 A/G + A/A,10
same,number of patients with MADRS score at week 12 of >25,[1]; rs41271330 A/G + A/A,4
same,share of patients with MADRS score at week 12 of 0...7,[1]; rs41271330 A/G + A/A,33%
same,share of patients with MADRS score at week 12 of 8...15,[1]; rs41271330 A/G + A/A,15%
same,share of patients with MADRS score at week 12 of 16...25,[1]; rs41271330 A/G + A/A,37%
same,share of patients with MADRS score at week 12 of >25,[1]; rs41271330 A/G + A/A,15%
same,number of patients with MADRS score at week 12 of 0...7,[1]; rs41271330 G/G,61
same,number of patients with MADRS score at week 12 of 8...15,[1]; rs41271330 G/G,9
same,number of patients with MADRS score at week 12 of 16...25,[1]; rs41271330 G/G,15
same,number of patients with MADRS score at week 12 of >25,[1]; rs41271330 G/G,4
same,share of patients with MADRS score at week 12 of 0...7,[1]; rs41271330 G/G,69%
same,share of patients with MADRS score at week 12 of 8...15,[1]; rs41271330 G/G,10%
same,share of patients with MADRS score at week 12 of 16...25,[1]; rs41271330 G/G,17%
same,share of patients with MADRS score at week 12 of >25,[1]; rs41271330 G/G,4%
